Experimental data from patent US20060240048A1 (priority 2002, published 2006).

Target: T1, human cannabinoid CB2 receptor (Homo sapiens, UniProt P34972)
T1 construct: expressed in transfected cells; host or cells: Saccharomyces cerevisiae strain MMY23
Experiment: Cannabinoid CB2 receptor agonist activity, yeast reporter assay (FDGlu fluorescence);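 as to Emax: 100% equals maximal response of reference agonist HU210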
Type: cell-based
Conditions: for Emax: read-out: efficacy value (Emax) at the cloned human cannabinoid CB2 receptor

T1 sequence (P34972 whole entry): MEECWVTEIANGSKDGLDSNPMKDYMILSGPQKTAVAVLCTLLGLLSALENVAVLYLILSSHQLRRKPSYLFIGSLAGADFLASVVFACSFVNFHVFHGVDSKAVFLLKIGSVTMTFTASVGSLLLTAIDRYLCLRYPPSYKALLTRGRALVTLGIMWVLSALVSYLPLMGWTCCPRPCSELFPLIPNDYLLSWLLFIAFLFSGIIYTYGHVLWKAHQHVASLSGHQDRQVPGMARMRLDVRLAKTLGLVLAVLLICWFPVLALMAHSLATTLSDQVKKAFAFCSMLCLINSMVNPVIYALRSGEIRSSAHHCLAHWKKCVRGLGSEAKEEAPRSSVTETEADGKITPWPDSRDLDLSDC

| Structure (SMILES) | Emax | EC50 |
| --- | --- | --- |
| O=C(NCC1CCOCC1)c1cnc(Nc2cccc(Cl)c2)cc1C(F)(F)F [Example 111, N-(Tetrahydropyran-4-yl-methyl)-6-(3-chlorophenyl-amino)-4-trifluoromethyl-nicotinamide] | > 50% |  |
| CC(C)(C)c1cc(Nc2cccc(Cl)c2)ncc1C(=O)NCC1CCOCC1 [Example 71, 4-tert-Butyl-6-(3-phenylamino)-N-(tetrahydro-pyran-4-ylmethyl)-nicotinamide] | > 50% | < 300 nM |
| CC(C)c1cc(Nc2cccc(C#N)c2)ncc1C(=O)NCC1CCC1 [Example 36, 6-(3-Cyano-phenylamino)-N-cyclobutylmethyl-4-isopropyl-nicotinamide] | > 50% | < 300 nM |
| CC(C)c1cc(Nc2cccc(C(F)(F)F)c2F)ncc1C(=O)NCC1CCC1 [Example 257, N-cyclobutylmethyl-6-(2-fluoro-3-trifluoromethyl-phenylamino)-4-isopropyl-nicotinamide] | > 50% | < 300 nM |
| CC(C)c1cc(Nc2cc(Cl)ccc2Cl)ncc1C(=O)NCC1CCOCC1 [Example 87, 6-(2,5-Dichloro-phenylamino)-4-isopropyl-N-(tetrahydro-pyran-4-ylmethyl)-nicotinamide] | > 50% | < 300 nM |
| CC(C)c1nc(Nc2ccc(Cl)cc2Cl)ccc1C(=O)NCC1CCS(=O)(=O)C1 (centres unmarked) [Example 215, 6-(2,4-Dichloro-phenylamino)-N-(1,1-tetrahydrothiophen-3-ylmethyl)-2-isopropyl-nicotinamide] | > 50% | < 300 nM |
| CC(C)c1cc(Nc2cccc(Br)c2)ncc1C(=O)NCC1CCCC1 [Example 26, 6-(3-Bromophenylamino)-N-cyclopentylmethyl-4-isopropyl-nicotinamide] | > 50% | < 300 nM |
| O=C(NCC1CCOCC1)c1cnc(Nc2cc(Cl)cc(Cl)c2)cc1C(F)(F)F [Example 147, N-(Tetrahydropyran-4-yl-methyl)-6-(3,5-dichloro-phenylamino)-4-trifluoro-methyl-nicotinamide] | > 50% | < 300 nM |
| CC(C)c1cc(Nc2cccc(C(F)(F)F)c2)ncc1C(=O)NCC1CCC1 [Example 35, N-Cyclobutylmethyl-6-(3-trifluoromethyl-phenylamino)-4-] | > 50% | < 300 nM |
| O=C(NCC1CCC1)c1cnc(Nc2ccc(F)cc2F)cc1C(F)(F)F [Example 166, N-Cyclobutylmethyl-6-(2,4-difluoro-phenylamino)-4-tri-fluoromethyl-nicotinamide] | > 50% | < 300 nM |
| CC(C)c1cc(Nc2ccc(F)cc2Cl)ncc1C(=O)NCC1CCCC1 [Example 29, 6-(2-Chloro-4-fluoro-phenylamino)-N-cyclopentylmethyl-4-isopropyl-nicotinamide] | > 50% | < 300 nM |
| Cc1c(Cl)cccc1Nc1cc(C(C)C)c(C(=O)NCC2CCOCC2)cn1 [Example 241, 6-(3-Chloro-2-methyl-phenylamino)-4-isopropyl-N-(tetrahydro-pyran-4-ylmethyl)-nicotinamide] | > 50% | < 300 nM |
| CC(C)c1cc(Nc2cccc(C(F)(F)F)c2F)ncc1C(=O)NCC1CCOCC1 [Example 81, 6-(2-Fluoro-3-trifluoromethyl-isopropyl-N-phenylamino)-4-(tetrahydro-pyran-4-ylmethyl) nicotinamide] | > 50% |  |
| CC(C)c1cc(Nc2ccc(F)cc2Cl)ncc1C(=O)NCC1CCOCC1 [Example 243, 6-(2-Chloro-4-fluoro-phenylamino)-4-isopropyl-N-(tetrahydro-pyran-4-ylmethyl)-nicotinamide] | > 50% | < 300 nM |
| O=C(NCC1CCCCCC1)c1cnc(Nc2ccc(Cl)cc2Cl)cc1C(F)(F)F [Example 139, N-Cycloheptylmethyl-6-(2,4-dichloro-phenylamino)-4-tri-fluoromethyl-nicotinamide] | > 50% | < 300 nM |
| O=C(NCC1CCCCC1)c1cnc(Nc2cccc(Br)c2)cc1C(F)(F)F [Example 116, N-Cyclohexylmethyl-6-(3-bromophenylamino)-4-tri-fluoromethyl-nicotinamide] | > 50% | < 300 nM |
| Cc1cc(Nc2cc(C(C)C)c(C(=O)NCC3CCOCC3)cn2)ccc1Br [Example 86, 6-(4-Bromo-3-methyl-phenylamino)-4-isopropyl-N-(tetrahydro-pyran-4-ylmethyl)-nicotinamide] | > 50% | < 300 nM |
| CC(C)c1cc(Nc2cc(F)cc(F)c2)ncc1C(=O)NCC1CCOCC1 [Example 242, 6-(3,5-Difluoro-phenylamino)-4-isopropyl-N-(tetrahydro-pyran-4-ylmethyl)-nicotinamide] | > 50% | < 300 nM |
| Cc1cc(Cl)ccc1Nc1cc(C(F)(F)F)c(C(=O)NCC2CCCCC2)cn1 [Example 171, N-Cyclohexylmethyl-6-(2-methyl-4-chloro-phenyl-amino)-4-trifluoromethyl-nicotinamide] | > 50% | < 300 nM |
| CC(C)CNC(=O)c1cnc(Nc2cccc(F)c2)cc1C(F)(F)F [Example 131, N-Isobutyl-6-(3-fluoro-phenylamino)-4-trifluoro-methyl-nicotinamide] | > 50% | < 300 nM |

| Structure (SMILES) | Emax | EC50 |
| --- | --- | --- |
| CC(C)c1cc(Nc2cccc(Cl)c2)ncc1C(=O)NCC1CCC1 [Example 6, 6-(3-Chloro-phenylamino)-N-cyclobutylmethyl-4-isopropyl-nicotinamide] | > 50% | < 300 nM |
| CC(C)CNC(=O)c1cnc(Nc2cccc(Cl)c2)cc1C(F)(F)F [Example 113, N-Isobutyl-6-(3-chloro-phenylamino)-4-trifluoro-methyl-nicotinainide] | > 50% | < 300 nM |
| O=C(NCC1CCS(=O)(=O)C1)c1cnc(Nc2cccc(F)c2)cc1C(F)(F)F (centres unmarked) [Example 133, N-(1,1-Dioxo-tetrahydro-thiophen-3-ylmethyl)-6-(3-fluoro-phenylamino)-4-trifluoromethyl-nicotinamide] | > 50% | < 300 nM |
| CC(C)c1cc(Nc2ccc(F)cc2F)ncc1C(=O)NCC1CCC1 [Example 249, N-Cyclobutylmethyl-6-(2,4-difluoro-phenylamino)-4-isopropyl-nicotinamide] | > 50% | < 300 nM |
| O=C(NCC1CCCCC1)c1cnc(Nc2ccccc2)cc1C(F)(F)F [Example 107, N-Cyclohexylmethyl-6-phenylamino-4-trifluoro-methyl-nicotinamide] | > 50% | < 300 nM |
| O=C(NCC1CCCCCC1)c1cnc(Nc2cccc(Br)c2)cc1C(F)(F)F [Example 117, N-Cycloheptylmethyl-6-(3-bromophenylamino)-4-tri-fluoromethyl-nicotinamide] | > 50% | < 300 nM |
| COc1cccc(Nc2cc(C(C)C)c(C(=O)NCC3CCC3)cn2)c1 [Example 38, N-Cyclobutylmethyl-4-isopropyl-6-(3-methoxy-phenylamino)-nicotinamide] | > 50% | < 300 nM |
| O=C(NC1CCC1)c1cnc(Nc2cccc(Cl)c2)cc1C(F)(F)F [Example 110, N-Cyclobutyl-6-(3-chloro-phenylamino)-4-trifluoro-methyl-nicotinamide] | > 50% | < 300 nM |
| Cc1cc(Cl)ccc1Nc1cc(C(C)C)c(C(=O)NCC2CCCC2)cn1 [Example 246, 6-(2-Methyl-4-chloro-phenylamino)-N-cyclopentylmethyl-4-isopropyl-nicotinamide] | > 50% | < 300 nM |
| CCC(CC)CNC(=O)c1cnc(Nc2cccc(Cl)c2)cc1C(C)C [Example 52, 6-(3-Chloro-phenylamino)-N-(2-ethyl-butyl)-4-isopropyl-nicotinamide] | > 50% |  |
| O=C(NC1CCC1)c1cnc(Nc2cccc(F)c2)cc1C(F)(F)F [Example 127, N-Cyclobutyl-6-(3-fluoro-phenylamino)-4-trifluoro-methyl-nicotinamide] | > 50% | < 300 nM |
| CC(C)c1cc(Nc2cccc(F)c2)ncc1C(=O)NCC1CCCCC1 [Example 10, N-Cyclohexylmethyl-6-(3-fluoro-phenylamino)-4-isopropyl-nicotinamide] | > 50% | < 300 nM |
| O=C(NCC1CCC1)c1cnc(Nc2ccccc2F)cc1C(F)(F)F [Example 124, N-Cyclobutylmethyl-6-(2-fluoro-phenylamino)-4-tri-fluoromethyl-nicotinamide] | > 50% | < 300 nM |
| CC(C)c1cc(Nc2cccc(Cl)c2)ncc1C(=O)NC1CCOCC1 [Example 58, 6-(3-Chloro-phenylamino)-4-isopropyl-N-(tetrahydro-pyran-4-yl)-nicotinamide] | > 50% |  |
| CC(C)CNC(=O)c1cnc(Nc2cccc(C(F)(F)F)c2F)cc1C(C)C [Example 271, 6-(2-Fluoro-3-trifluoromethyl-phenylamino)-N-isobutyl-4-isopropyl-nicotinamide] | > 50% | < 300 nM |
| O=C(NCC1CCC1)c1cnc(Nc2ccccc2)cc1C(F)(F)F [Example 109, N-Cyclobutylmethyl-6-phenylamino-4-trifluoro-methyl-nicotinamide] | > 50% | < 300 nM |
| Cc1ccc(Br)cc1Nc1cc(C(C)C)c(C(=O)NCC2CCOCC2)cn1 [Example 234, 6-(5-Bromo-2-methyl-phenylamino)-4-isopropyl-N-(tetrahydro-pyran-4-ylmethyl)-nicotinamide] | > 50% | < 300 nM |
| Cc1ccc(C(F)(F)F)cc1Nc1cc(C(C)C)c(C(=O)NCC2CCOCC2)cn1 [Example 88, 4-lsopropyl-6-(2-methyl-5-trifluoromethyl-phenylamino)-N-(tetrahydro-pyran-4-ylmethyl)-nicotinamide] | > 50% | < 300 nM |
| CC(C)c1cc(Nc2cccc(C(F)(F)F)c2F)ncc1C(=O)NCC1CCCC1 [Example 245, 6-(2-Fluoro-3-trifluoromethyl-phenylamino)-N-cyclopentylmethyl-4-isopropyl-nicotinamide] | > 50% | < 300 nM |
